Among the data in PMC5803236 (Scientific Reports, 2018) are MIC values, retold here.

Assay [1] has as its target T1, hemagglutinin (HA) of H1N1 A/Puerto Rico/8/1934 (Influenza A virus (A/Puerto Rico/8/1934(H1N1)), UniProt P03452).
T1 construct: native HA on whole virus (virus antigen, 4 HAU); not purified protein
The format is cell-based.

Assay [2] has as its target hemagglutinin (HA) of H1N1 A/Korea/01/2009 (Pandemic) (Influenza A virus (A/Korea/01/2009(H1N1)), UniProt C5MQE6).

Structures are written as SMILES.

In the case of `CC(=O)N[C@H]1[C@H]([C@H](O)[C@H](O)CO)O[C@@](OC[C@H]2O[C@@H](O[C@H]3[C@H](O)[C@@H](O)C(O)O[C@@H]3CO)[C@H](O)[C@@H](O)[C@H]2O)(C(=O)O)C[C@@H]1O` (some centres unmarked) [6′-sialyllactose], the MIC in assay [1] and in assay [2] was greater than 200 mM each time.
